Assay results: paper PMC10320005, “In Campylobacter jejuni, a new type of chaperone receives heme from ferrochelatase” (Frontiers in Genetics, 2023)

Key:
[1] = target: T1, PgdH2 (Cj0362) (Campylobacter jejuni, UniProt Q0PBE8); test: fluorescence of protoporphyrin IX ([…] nm) with E. coli membrane fraction versus empty plasmid; type: biochemical; settings: 500 nM proto'gen IX, 150 mM NaCl, 20% glycerol, 5 mM DTT, Tris-HCl pH 8, aerobic
T1 construct: expressed from pPR-IBA2 (Strep-tag vector) in E. coli BL21STAR(DE3)pLysS; membrane fraction, not purified
T1 sequence (Q0PBE8 1-150): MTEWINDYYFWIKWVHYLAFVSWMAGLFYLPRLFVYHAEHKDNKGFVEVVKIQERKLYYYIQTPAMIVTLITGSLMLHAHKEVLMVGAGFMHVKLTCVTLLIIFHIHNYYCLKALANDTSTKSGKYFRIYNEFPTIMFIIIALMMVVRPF

[2] = target: T2, CgdH2 (Cj0363c) (Campylobacter jejuni, UniProt Q0PBE7); test: UV-visible titration of apo-protein, absorbance difference at […] nm; type: binding
T2 construct: gene hemN; full length (448 residues; 447 aa in Discussion), C-terminal His-tag (pET-23b), E. coli BL21STAR(DE3)pLysS; apo-form without Fe-S cluster
T2 sequence (Q0PBE7 1-448): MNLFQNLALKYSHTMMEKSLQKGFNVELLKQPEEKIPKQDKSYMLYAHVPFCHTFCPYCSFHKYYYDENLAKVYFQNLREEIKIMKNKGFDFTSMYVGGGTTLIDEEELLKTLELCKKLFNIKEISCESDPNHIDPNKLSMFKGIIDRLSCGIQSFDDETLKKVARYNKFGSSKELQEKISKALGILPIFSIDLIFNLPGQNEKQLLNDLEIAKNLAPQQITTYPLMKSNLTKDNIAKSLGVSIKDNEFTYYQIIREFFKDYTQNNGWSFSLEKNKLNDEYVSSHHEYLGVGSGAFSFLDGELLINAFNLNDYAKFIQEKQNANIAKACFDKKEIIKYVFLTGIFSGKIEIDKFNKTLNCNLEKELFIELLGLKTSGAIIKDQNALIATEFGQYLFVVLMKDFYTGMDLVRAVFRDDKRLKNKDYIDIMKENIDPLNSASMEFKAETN

[3] = target: T3, UroD (Cj1243) (Campylobacter jejuni, UniProt Q9PN54); test: linked assay, UV-visible spectroscopy and HPLC-MS of coproporphyrin III; type: biochemical; settings: uro'gen III made in situ from porphobilinogen with D. vulgaris PbgS and UroS; Tris-HCl pH 8, anaerobic, overnight
T3 construct: gene hemE; N-terminal Strep-tag (pPR-IBA2), E. coli BL21STAR(DE3)pLysS
T3 sequence (Q9PN54 1-340): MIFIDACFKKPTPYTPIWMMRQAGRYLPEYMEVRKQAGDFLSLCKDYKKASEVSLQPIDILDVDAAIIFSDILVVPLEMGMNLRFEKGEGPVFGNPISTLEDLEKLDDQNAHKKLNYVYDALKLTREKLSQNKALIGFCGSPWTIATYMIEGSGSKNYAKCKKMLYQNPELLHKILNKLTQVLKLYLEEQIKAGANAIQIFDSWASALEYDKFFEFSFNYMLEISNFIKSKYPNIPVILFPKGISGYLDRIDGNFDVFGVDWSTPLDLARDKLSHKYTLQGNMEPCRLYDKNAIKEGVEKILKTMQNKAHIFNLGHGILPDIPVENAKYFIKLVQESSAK

[4] = target: T4, PpfC (Cj0503c) (Campylobacter jejuni, UniProt Q9PI08); test: ferrochelatase activity, decrease of protoporphyrin IX at […] nm; type: biochemical; settings: 10 µM protoporphyrin IX, 20 µM (NH4)2Fe(SO4)2, 5 mM DTT, 150 mM NaCl, 20% glycerol, Tris-HCl pH 8, anaerobic, room temperature
T4 construct: gene hemH; N-terminal Strep-tag (pPR-IBA2), E. coli BL21STAR(DE3)pLysS, solubilised with Triton X-100
T4 sequence (Q9PI08 1-303): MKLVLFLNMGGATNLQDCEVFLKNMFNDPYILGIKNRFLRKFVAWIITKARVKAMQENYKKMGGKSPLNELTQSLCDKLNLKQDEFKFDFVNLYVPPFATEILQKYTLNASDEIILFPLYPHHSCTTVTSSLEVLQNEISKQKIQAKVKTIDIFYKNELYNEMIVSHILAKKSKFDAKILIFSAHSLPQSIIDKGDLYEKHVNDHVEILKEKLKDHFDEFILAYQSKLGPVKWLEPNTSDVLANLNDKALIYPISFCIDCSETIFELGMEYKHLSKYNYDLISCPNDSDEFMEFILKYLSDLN

[5] = target: T5, CgdH1 (Cj0992c) (Campylobacter jejuni, UniProt Q0P9R0); test: HPLC-MS of porphyrin products; type: biochemical; settings: 10 µM copro'gen III, 1 mM SAM, 0.5 mM NADH, E. coli cell extract added, anaerobic, overnight, room temperature; incomplete reaction via harderoporphyrin intermediate
T5 construct: full length (451 residues), C-terminal His-tag (pET-23b), E. coli BL21STAR(DE3)pLysS; Fe-S cluster reconstituted
T5 sequence (Q0P9R0 1-451): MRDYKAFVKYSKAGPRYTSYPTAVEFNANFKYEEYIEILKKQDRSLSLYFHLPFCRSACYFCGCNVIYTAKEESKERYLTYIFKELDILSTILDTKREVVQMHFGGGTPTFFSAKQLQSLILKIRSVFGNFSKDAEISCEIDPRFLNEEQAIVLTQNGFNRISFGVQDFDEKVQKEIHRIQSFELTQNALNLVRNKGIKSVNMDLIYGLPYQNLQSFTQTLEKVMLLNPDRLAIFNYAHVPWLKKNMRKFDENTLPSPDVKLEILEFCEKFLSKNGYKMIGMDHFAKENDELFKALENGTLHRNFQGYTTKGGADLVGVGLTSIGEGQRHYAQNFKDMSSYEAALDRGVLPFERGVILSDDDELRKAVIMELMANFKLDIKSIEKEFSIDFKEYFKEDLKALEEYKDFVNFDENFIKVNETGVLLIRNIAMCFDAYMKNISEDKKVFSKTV

Q: How did the “fluorescence of protoporphyrin IX (390/630 nm) with E. coli membrane fraction ve” value [1] turn out when `C=Cc1c2[nH]c(c1C)Cc1[nH]c(c(CCC(=O)O)c1C)Cc1[nH]c(c(C)c1CCC(=O)O)Cc1[nH]c(c(C)c1C=C)C2` [proto'gen IX] was run?
A: The value was “Cells containing Cj0362 exhibited much higher activity for the oxidation of proto'gen IX”.

Q: For `C=CC1=C(C)C2=Cc3c(C=C)c(C)c4[n]3[Fe]([Cl])[n]3c(c(C)c(CCC(=O)O)c3=CC3=NC(=C4)C(C)=C3CCC(=O)O)=CC1=N2` [hemin], which Kd [2] is on record?
A: The Kd was 4.9 ± 1 µM.

Q: How did the “linked assay, UV-visible spectroscopy and HPLC-MS of coproporphyrin III” value [3] turn out when `O=C(O)CCc1c2[nH]c(c1CC(=O)O)Cc1[nH]c(c(CC(=O)O)c1CCC(=O)O)Cc1[nH]c(c(CC(=O)O)c1CCC(=O)O)Cc1[nH]c(c(CCC(=O)O)c1CC(=O)O)C2` [uro'gen III] was run?
A: Its value is “confirmed the formation of copro'gen III”.

Q: How did the “ferrochelatase activity, decrease of protoporphyrin IX at 408 nm” value [4] turn out when `C=CC1=C(C)c2cc3[nH]c(cc4nc(cc5[nH]c(cc1n2)c(C)c5CCC(=O)O)C(CCC(=O)O)=C4C)c(C)c3C=C` [protoporphyrin IX] was run?
A: Its value is “C. jejuni Cj0503c exhibits a ferrochelatase specific activity”.

Q: `Cc1c2[nH]c(c1CCC(=O)O)Cc1[nH]c(c(CCC(=O)O)c1C)Cc1[nH]c(c(CCC(=O)O)c1C)Cc1[nH]c(c(C)c1CCC(=O)O)C2` [copro'gen III] was tested. Which “HPLC-MS of porphyrin products” value [5] did it give?
A: Its value is “The expected final reactional product, protoporphyrin IX (the oxidized form of proto'gen IX), was observed”.
